These results are taken from patent US20240383913A1, “THIOPHENE RING COMPOUND, PREPARATION METHOD THEREFOR AND APPLICATION THEREOF” (CENTER FOR EXCELLENCE IN MOLECULAR CELL SCIENCE, CHINESE …, priority 2021, published 2024).

Read-outs that look alike come from different tables or passages of the source.

In experiment [1] the target is T1, dopamine D2 receptors (Homo sapiens (Human), UniProt P14416). The experiment in a line: Dopamine D2 receptor β-arrestin2 BRET (recruitment).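 As to all read-outs here: cells co-expressing Rluc-fused D2 receptor, GRK2 and GFP2-fused β-arrestin2, BRET read with coelenterazine 400a after adding drug over a concentration series, in duplicate wells.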 The class given is cell-based. The note with it: for Emax: read-out: β-arrestin2 BRET (Emax %).
T1 sequence (P14416 whole entry, the tested form may be a part): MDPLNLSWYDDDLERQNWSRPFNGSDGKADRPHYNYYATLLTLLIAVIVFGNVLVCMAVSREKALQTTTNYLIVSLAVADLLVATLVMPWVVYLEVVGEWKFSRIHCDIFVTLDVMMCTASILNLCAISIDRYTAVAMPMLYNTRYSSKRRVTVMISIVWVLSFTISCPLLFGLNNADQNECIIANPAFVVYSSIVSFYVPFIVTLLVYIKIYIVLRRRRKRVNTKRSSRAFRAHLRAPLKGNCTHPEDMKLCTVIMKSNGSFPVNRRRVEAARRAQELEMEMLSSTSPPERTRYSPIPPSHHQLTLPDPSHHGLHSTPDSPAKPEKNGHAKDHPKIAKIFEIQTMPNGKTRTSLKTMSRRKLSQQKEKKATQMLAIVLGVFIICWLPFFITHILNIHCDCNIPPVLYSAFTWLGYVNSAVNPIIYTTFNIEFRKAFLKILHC
Description: (§1) To examine the downstream G protein signaling pathway mediated by dopamine D2 receptors, on the first day, a 6 cm culture dish was used for transfection with 1 μg of dopamine D2 receptors, 1 μg of Gαi1 containing a C-terminal seaweed luciferase (Gαi1-Rluc), 1 μg of Gβ3, 1 μg of Gγ9 containing C-terminal green fluorescent protein (Gγ9-GFP), and 16 μL of PEI. At the same time, in order to examine the downstream β-arrestin2 signaling pathway mediated by dopamine D2 receptors, on the first day, a 6 cm culture dish was used for transfection with 500 μg of dopamine D2 receptors containing C-terminal seaweed luciferase (D2-Rluc), 500 μg of G protein-coupled receptor kinase 2 (GRK2), 2500 μg of β-arrestin2 containing N-terminal green fluorescent protein (GFP2-ARRB2) mixed with 14 μL of PEI. The next day, the confluent cells of a 6 cm culture dish were digested and reseeded into a 96-well plate with 100 μL of culture medium added to each well. On the third day, the drugs were added for test. The 96-well plate was taken out from the cell incubator to decant the culture medium, 40 μL of the substrate coelenterazine 400a (final concentration of 5 μM) was added to each well, and then 20 μL of different drugs were added sequentially from left to right to ensure that the final concentration of the drug decreased gradually from bottom to top, with two replicates per treatment. Finally, the prepared samples were loaded on machine for test. The machine readout value reflected the recruitment of β-arrestin2 to the membrane or the dissociation of G protein trimer. The former indicated the degree of activation of the β-arrestin2 signaling pathway downstream of the dopamine D2 receptors, and the latter indicated the degree of activation of the G protein signaling pathway downstream of the dopamine D2 receptors.
In experiment [2] the target is T2, 5-HT2A receptor (Homo sapiens (Human), UniProt P28223). The experiment in a line: 5-HT2A receptor β-arrestin2 BRET (recruitment).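 Also: cells co-expressing Rluc-tagged 5-HT2A receptor, GRK2 and GFP2-tagged β-arrestin2, read by BRET with coelenterazine 400a (5 µM) across graded drug concentrations in duplicate, signal reflecting β-arrestin2 membrane recruitment.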 The class given is cell-based.
T2 sequence (P28223 whole entry): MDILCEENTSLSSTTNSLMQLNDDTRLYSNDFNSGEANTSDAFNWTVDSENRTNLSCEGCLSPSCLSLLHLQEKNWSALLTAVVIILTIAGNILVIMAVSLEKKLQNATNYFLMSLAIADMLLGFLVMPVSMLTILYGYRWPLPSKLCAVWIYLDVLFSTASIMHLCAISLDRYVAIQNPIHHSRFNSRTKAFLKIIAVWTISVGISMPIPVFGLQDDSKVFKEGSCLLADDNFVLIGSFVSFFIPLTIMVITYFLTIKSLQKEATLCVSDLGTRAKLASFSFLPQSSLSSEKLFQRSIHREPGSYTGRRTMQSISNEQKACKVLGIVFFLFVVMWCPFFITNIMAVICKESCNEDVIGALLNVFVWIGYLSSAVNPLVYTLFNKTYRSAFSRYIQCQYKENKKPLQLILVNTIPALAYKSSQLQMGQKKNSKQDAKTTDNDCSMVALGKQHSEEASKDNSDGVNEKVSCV
Description: (§2) To examine the downstream G protein signaling pathway mediated by 5-HT2A receptors, on the first day, a 6 cm culture dish was used for transfection with 1 μg of 5-HT2A receptors, 1 μg of Gαq containing C-terminal seaweed luciferase (Gαq-Rluc), 1 μg of Gβ3, 1 μg of Gγ9 containing C-terminal green fluorescent protein (Gγ9-GFP), and 16 μL of PEI. At the same time, in order to examine the downstream β-arrestin2 signaling pathway mediated by 5-HT2A receptors, on the first day, a 6 cm culture dish was used for transfection with 500 μg of 5-HT2A receptors containing C-terminal seaweed luciferase (5-HT2A-Rluc), 500 μg of G protein-coupled receptor kinase 2 (GRK2), 2500 μg of β-arrestin2 containing N-terminal green fluorescent protein (GFP2-ARRB2), and 14 μL of PEI. The next day, the confluent cells of a 6 cm culture dish were digested and reseeded into a 96-well plate with 100 μL of culture medium was added to each well. On the third day, the drugs were added for test. The 96-well plate was taken out from the cell incubator to decant the culture medium, 40 μL of the substrate coelenterazine 400a (final concentration of 5 μM) was added to each well, and then 20 μL of different drugs were added sequentially from left to right to ensure that the final concentration of the drug decreased gradually from bottom to top, with two replicates per treatment. Finally, the prepared samples were loaded on machine for test. The machine readout value reflected the recruitment of β-arrestin2 to the membrane or the dissociation of G protein trimer. The former indicated the degree of activation of the β-arrestin2 signaling pathway downstream of the 5-HT2A receptors, and the latter indicated the degree of activation of the G protein signaling pathway downstream of the 5-HT2A receptors.
Experiment [3] addresses T3, 5-HT1A receptor (Homo sapiens (Human), UniProt P08908). The experiment in a line: 5-HT1A receptor Gαi1 BRET (G protein trimer dissociation).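 Also: cells transiently co-expressing 5-HT1A receptor, luciferase-tagged Gαi1, Gβ3 and GFP-tagged Gγ9, seeded in 96-well plates for BRET measurement of G protein signaling.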 The class given is cell-based.
Description: (§3) The affinity of the compounds of the present disclosure for the 5-HTIA receptors was determined by the method of radioligand competition experiment. In the first step, a cell membrane component containing specific 5-HTIA receptor was prepared. A 10 cm culture dish was used for transfection with 10 ng of the 5-HTIA receptor and 40 μL of PEI. After 48 hours, the 10 cm culture dish was taken out from the cell incubator and the cultured cells had expressed the 5-HTIA receptor. A vacuum pump was used to suck off the culture medium, 3 mL of lysis buffer was added to each culture dish, and the cells were placed in a 4° C. cold room for 10 minutes. After the cells were detached, the cells were transferred to a 15 mL centrifuge tube and centrifuged at 1500 rpm for 5 minutes at 4° C., and the supernatant was discarded. The cell pellet was transferred to a tissue homogenizer, and 3 mL of lysis buffer was added and fully ground until the cells were broken. Then, cell suspension was equally aliquoted into several EP tubes, centrifuged at 12000 rpm for 5 minutes at 4° C., and the supernatant was discarded. The precipitate was the cell membrane component containing the 5-HT1A receptor. […] First, a standard binding buffer was added to the cell membrane component containing the 5-HT1A receptor, and the cell membrane was disrupted and resuspended with an electric tissue homogenizer. 30 μL of membrane protein suspension was added to each well of a 96-well plate. Then, 30 μL of different drugs were added to the 96-well plate sequentially from bottom to top to ensure that the final drug concentrations were 10^−5 M, 10^−6 M, 10^−7 M, 10^−8 M, 10^−9 M, and 0 M, with two replicates per treatment. Next, 30 μL of [3H]-LSD was added to each well of the 96-well plate. The plate was incubated for 2 hours at room temperature in the dark. Detection was conducted. The machine readout value reflected the amount of [3H]-LSD bound on the membrane, and after further data processing, the affinity Ki values of different compounds for the 5-HTIA receptor were obtained. To examine the downstream G protein signaling pathway mediated by 5-HTIA receptors, on the first day, a 6 cm culture dish was used for transfection with 1 μg of 5-HTIA receptors, 1 μg of Gαi1 containing C-terminal seaweed luciferase (Gαi1-Rluc), 1 μg of Gβ3, 1 μg of Gγ9 containing C-terminal green fluorescent protein (Gγ9-GFP), and 16 μL of PEI. The next day, the confluent cells of a 6 cm culture dish were digested and reseeded into a 96-well plate with 100 μL of culture medium was added to each well. On the third day, the drugs were added for test. The 96-well plate was taken out from the cell incubator to decant the culture medium, 40 μL of the substrate coelenterazine 400a (final concentration of 5 μM) was added to each well, and then 20 μL of different drugs were added sequentially from left to right to ensure that the final concentration of the drug decreased gradually from bottom to top, with two replicates per treatment. Finally, the prepared samples were loaded on machine for test. The machine readout value reflected the dissociation of G protein trimer, and thereby indicated the degree of activation of the G protein signaling pathway downstream of the 5-HTIA receptors.
Experiment [4] deals with T1, dopamine D2 receptors. The experiment in a line: Affinity for dopamine D2 receptors, radioligand competition with [3H]-Methylspiperone. The class given is binding. The following applies: 293T membrane transiently expressing D2.
Description: The affinity of the compounds of the present disclosure for the dopamine D2 receptors was determined by the method of radioligand competition experiment. In the first step, a cell membrane component containing specific dopamine D2 receptors was prepared. A 10 cm culture dish was used for transfection with 10 ng of the dopamine D2 receptors and 40 μL of polyethylenimine (PEI hereafter). After 48 hours, the 10 cm culture dish was taken out from the cell culture incubator and the cultured cells had expressed the dopamine D2 receptors. A vacuum pump was used to suck off the culture medium, 3 mL of lysis buffer was added to each culture dish, and the cells were placed in a 4° C. cold room for 10 minutes. After the cells were detached, the cells were transferred to a 15 mL centrifuge tube and centrifuged at 1500 rpm for 5 minutes at 4° C., and the supernatant was discarded. The cell pellet was transferred to a tissue homogenizer, and 3 mL of lysis buffer was added and fully ground until the cells were broken. Then, cell suspension was equally aliquoted into several EP tubes, centrifuged at 12000 rpm for 5 minutes at 4° C., and the supernatant was discarded. The precipitate was the cell membrane component containing the dopamine D2 receptors. […] First, a standard binding buffer was added to the cell membrane component containing the dopamine D2 receptors, and the cell membrane was disrupted and resuspended with an electric tissue homogenizer. 30 μL of membrane protein suspension was added to each well of a 96-well plate. Then, 30 μL of different drugs were added to the 96-well plate sequentially from bottom to top to ensure that the final drug concentrations were 10^−5 M, 10^−6 M, 10^−7 M, 10^−8 M, 10^−9 M, and 0 M, with two replicates per treatment. Next, 30 μL of [3H]-Methylspiperone was added to each well of the 96-well plate. The plate was incubated for 2 hours at room temperature in the dark. Detection was conducted. The machine readout value reflected the amount of [3H]-Methylspiperone bound on the membrane, and after further data processing, the affinity Ki values of different compounds for the dopamine D2 receptors were obtained.
Experiment [5] has as its target T2, 5-HT2A receptor. The experiment in a line: Affinity for 5-HT2A receptors, radioligand competition with [3H]-ketanserin. The class given is binding. The following applies: 293T membrane transiently expressing 5-HT2A.
Experiment [6] has as its target T3, 5-HT1A receptor. The experiment in a line: Affinity for 5-HT1A receptors, radioligand competition with [3H]-LSD.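 Also: membranes from cells transiently transfected with 5-HT1A receptor, bound [3H]-LSD displaced by compound at 10^-9 to 10^-5 M, 2 h incubation at room temperature in the dark.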 The class given is binding.
Description: as §3
For experiment [7], the target named is T2, 5-HT2A receptor. The experiment in a line: 5-HT2A receptor Gαq BRET (G protein trimer dissociation).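 As to all read-outs here: cells transfected with 5-HT2A receptor, Gαq-Rluc, Gβ3 and Gγ9-GFP, BRET read with coelenterazine 400a (5 µM) across a compound dilution series in duplicate.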 It is filed as cell-based. The note with it: for Emax: read-out: Gαq BRET (Emax %).
Description: as §2
The target in experiment [8] is T1, dopamine D2 receptors. The experiment in a line: Dopamine D2 receptor Gαi1 BRET (G protein trimer dissociation).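 As to all read-outs here: transfected cells co-expressing D2 receptor, Gαi1-Rluc, Gβ3 and Gγ9-GFP, BRET with coelenterazine 400a at 5 µM read as G protein trimer dissociation, graded drug concentrations in duplicate.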 It is filed as cell-based. The note with it: for Emax: read-out: Gαi1 BRET (Emax %).
Description: as §1
Where [9] appears, read: D2 receptor, β-arrestin2 pathway, read-out: β-arrestin2 BRET EC50.
Setting [10] is: 5-HT2A receptor, β-arrestin2 pathway.
The mark [11] stands for this setting: 5-HT2A receptor, β-arrestin2 pathway, read-out: β-arrestin2 BRET EC50.
Setting [12] is: 5-HT1A receptor, G protein pathway.
[13] abbreviates: 5-HT1A receptor, G protein pathway, read-out: Gαi1 BRET EC50.
[14] abbreviates: 293T membrane transiently expressing 5-HT1A, [3H]-LSD, read-out: 5-HT1A affinity Ki.
The mark [15] stands for this setting: 5-HT2A receptor, G protein pathway, read-out: Gαq BRET EC50.
Where [16] appears, read: D2 receptor, G protein pathway, read-out: Gαi1 BRET EC50.

T3 sequence (P08908 whole entry): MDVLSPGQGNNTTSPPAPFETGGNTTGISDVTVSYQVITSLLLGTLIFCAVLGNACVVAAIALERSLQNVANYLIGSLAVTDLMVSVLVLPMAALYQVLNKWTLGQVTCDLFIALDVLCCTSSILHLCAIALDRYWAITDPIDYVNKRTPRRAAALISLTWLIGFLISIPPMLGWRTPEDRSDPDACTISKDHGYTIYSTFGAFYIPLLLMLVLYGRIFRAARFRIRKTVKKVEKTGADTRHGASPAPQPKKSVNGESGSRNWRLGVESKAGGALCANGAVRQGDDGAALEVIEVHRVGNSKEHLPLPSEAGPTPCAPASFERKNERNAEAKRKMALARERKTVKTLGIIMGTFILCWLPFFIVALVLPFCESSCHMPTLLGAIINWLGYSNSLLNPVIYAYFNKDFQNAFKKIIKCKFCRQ

As for `CCCN1CCN2c3cccc4scc(c34)CC2C1` (centres unmarked) [Compound I-2, 8-Propyl-6,6a,7,8,9,10-Hexahydropyrazino[1,2-a]Thieno [4,3,2-De]Quinoline], the EC50 was 19.3 nM at dopamine D2 receptors [1] (setting [9]); 298 nM on 5-HT2A receptor [2] (setting [11]); 7720 nM at 5-HT1A receptor [3] (setting [13]); 2.41 nM on 5-HT2A receptor [7] (setting [15]); 747 nM on dopamine D2 receptors [8] (setting [16]). Also, the Emax turned out to be 27.6% at dopamine D2 receptors [1]; 66.3% on 5-HT2A receptor [2] (setting [10]); 72% on 5-HT1A receptor [3] (setting [12]); 7.6% on 5-HT2A receptor [7]; 12.1% at dopamine D2 receptors [8]. Besides, the Ki on dopamine D2 receptors [4] is 380 nM; at 5-HT2A receptor [5], 710 nM; at 5-HT1A receptor [6] (setting [14]), 3420 nM.

Consider `OCCN1CCN2c3cccc4scc(c34)CC2C1` (centres unmarked) [Compound I-3, 2-(6a,7,9,10-Tetrahydropyrazino[1,2-a]Thieno [4,3,2-De]Quinolin-8 (6H)-Yl) Ethan-1-Ol], for which the EC50 on dopamine D2 receptors [1] came to 189 nM; at 5-HT2A receptor [2] it was 638 nM; on 5-HT1A receptor [3] it was 24200 nM; on 5-HT2A receptor [7], 1520 nM; at dopamine D2 receptors [8] it was 40.7 nM. Further, the Emax on dopamine D2 receptors [1] is 14.2%; at 5-HT2A receptor [2] (setting [10]), 90%; at 5-HT1A receptor [3] (setting [12]), 62%; at 5-HT2A receptor [7], 43.6%; on dopamine D2 receptors [8] it was 22.5%. Moreover, the results for the Ki at dopamine D2 receptors [4], on 5-HT2A receptor [5] and at 5-HT1A receptor [6] were > 10000 nM, 4130 nM and 4410 nM, respectively.

With `Fc1ccc(CCN2CCN3c4cccc5scc(c45)CC3C2)cc1` (centres unmarked) [Compound I-5, 8-(4-Fluorophenylethyl)-6,6a,7,8,9,10-Hexahydropyrazino[1,2-a]Thieno [4,3,2-De]Quinoline], the EC50 on dopamine D2 receptors [1] (setting [9]) was 370 nM; on 5-HT2A receptor [2] (read-out: β-arrestin2 BRET EC50), 946 nM; at 5-HT1A receptor [3] (setting [13]), 3130 nM; at 5-HT2A receptor [7] (read-out: Gαq BRET EC50) it was 1100 nM; at dopamine D2 receptors [8] (setting [16]), 193 nM. The Emax on dopamine D2 receptors [1] is 27.2%; at 5-HT2A receptor [2] (setting [10]), 27.3%; at 5-HT1A receptor [3] (setting [12]), 91%; at 5-HT2A receptor [7], 50%; on dopamine D2 receptors [8] it was 53.8%. Moreover, the values for the Ki at dopamine D2 receptors [4], at 5-HT2A receptor [5] and at 5-HT1A receptor [6] (setting [14]) were 7500 nM, 920 nM and 280 nM, respectively.

In the case of `c1csc(CCN2CCN3c4cccc5scc(c45)CC3C2)c1` (centres unmarked) [Compound I-6, 8-(2-(Thiophen-2-Yl)Ethyl)-6,6a,7,8,9,10-Hexahydropyrazino[1,2-a]Thieno [4,3,2-De]Quinoline], the EC50 at dopamine D2 receptors [1] was found to be 299 nM; on 5-HT2A receptor [2] (setting [11]), 8340 nM; at 5-HT1A receptor [3] (setting [13]) it was 3230 nM; on dopamine D2 receptors [8], 342 nM. In addition, the Emax on dopamine D2 receptors [1] was 20.2%; on 5-HT2A receptor [2] (setting [10]) it was 45.4%; at 5-HT1A receptor [3] (setting [12]) it was 90%; at dopamine D2 receptors [8], 58.4%. Also, the Ki at dopamine D2 receptors [4] came out at 5730 nM; at 5-HT2A receptor [5] it was 7250 nM; at 5-HT1A receptor [6] (setting [14]), 2730 nM.

In the case of `Fc1ccc(-c2cncc(CN3CCN4c5cccc6scc(c56)CC4C3)c2)cc1` (centres unmarked) [Compound I-8, 8-((5-(4-Fluorophenyl)Pyridin-3-Yl)Methyl)-6,6a,7,8,9,10-Hexahydropyrazino[1,2-a]Thieno [4,3,2-De]Quinoline], the EC50 on dopamine D2 receptors [1] (setting [9]) was determined as 371 nM; on 5-HT2A receptor [2] (setting [11]) it was 1290 nM; at 5-HT1A receptor [3] (setting [13]) it was 16300 nM; at 5-HT2A receptor [7] (setting [15]) it was 4540 nM; at dopamine D2 receptors [8] (setting [16]), 531 nM. Moreover, the Emax is 14.1% at dopamine D2 receptors [1]; 84.2% on 5-HT2A receptor [2] (setting [10]); 53% at 5-HT1A receptor [3] (setting [12]); 21% on 5-HT2A receptor [7]; 15.9% at dopamine D2 receptors [8]. Also, the Ki at dopamine D2 receptors [4] turned out to be 440 nM; at 5-HT2A receptor [5], 1460 nM; at 5-HT1A receptor [6] (setting [14]), 9850 nM.

On to `O=C(NCCN1CCN2c3cccc4scc(c34)CC2C1)C1CCOCC1` (centres unmarked) [Compound I-14, N-(2-(6a,7,9,10-Tetrahydropyrazino[1,2-a]Thieno [4,3,2-De]Quinolin-8 (6H)-Yl)Ethyl)Tetrahydro-2H-Pyran-4-Carboxamide], for which, on 5-HT2A receptor [2] (setting [10]), the “β-arrestin2 BRET (Emax %)” value is “(21.00%)”. Besides, the figures for the EC50 on 5-HT2A receptor [2] (setting [11]), at 5-HT1A receptor [3] (setting [13]) and on 5-HT2A receptor [7] (setting [15]) were 123 nM, 2000 nM and 475 nM, respectively. Also, the Emax at 5-HT1A receptor [3] (setting [12]) turned out to be 86%. Besides, the values for the Ki at dopamine D2 receptors [4], on 5-HT2A receptor [5] and on 5-HT1A receptor [6] (setting [14]) were > 10000 nM, 1190 nM and 1300 nM, respectively. For the same compound, the “Gαq BRET (Emax %)” value at 5-HT2A receptor [7] (5-HT2A receptor, G protein pathway) was “(29.10%)”.

With `c1ccc(OCCN2CCN3c4cccc5scc(c45)CC3C2)cc1` (centres unmarked) [Compound I-15, 8-(2-Phenoxyethyl)-6,6a,7,8,9,10-Hexahydropyrazino[1,2-a]Thieno [4,3,2-De]Quinoline], the EC50 came to 164 nM on dopamine D2 receptors [1] (setting [9]), 1770 nM at 5-HT2A receptor [2] (setting [11]), 5260 nM on 5-HT1A receptor [3] (setting [13]) and 334 nM at dopamine D2 receptors [8] (setting [16]). The Emax at dopamine D2 receptors [1] stood at 10.5%; on 5-HT2A receptor [2] (setting [10]), 10%; at 5-HT1A receptor [3] (setting [12]), 57%; at dopamine D2 receptors [8], 18.6%. Besides, the values for the Ki at dopamine D2 receptors [4], at 5-HT2A receptor [5] and at 5-HT1A receptor [6] (setting [14]) were 5500 nM, 1710 nM and 840 nM, respectively.

In the case of `O=c1ccc2ccc(OCCCN3CCN4c5cccc6scc(c56)CC4C3)cc2[nH]1` (centres unmarked) [Compound I-17, 7-(3-(6a,7,9,10-Tetrahydropyrazino[1,2-a]Thieno [4,3,2-De]Quinolin-8 (6H)-Yl) Propoxy) Quinolin-2 (1H)-One], the EC50 at dopamine D2 receptors [1] (setting [9]) turned out to be 91.6 nM; at 5-HT2A receptor [2] (setting [11]), 1270 nM; at 5-HT1A receptor [3] (setting [13]), 754 nM; at 5-HT2A receptor [7] (setting [15]), 279 nM; at dopamine D2 receptors [8] (setting [16]) it was 18.5 nM. Moreover, the Emax at dopamine D2 receptors [1] was determined as 66.8%; on 5-HT2A receptor [2] (setting [10]), 92.2%; on 5-HT1A receptor [3] (setting [12]), 86%; on 5-HT2A receptor [7], 23.4%; on dopamine D2 receptors [8], 81.6%. Also, the results for the Ki on dopamine D2 receptors [4], on 5-HT2A receptor [5] and on 5-HT1A receptor [6] (setting [14]) were 290 nM, 750 nM and 340 nM, respectively.

On to `O=C1c2ccccc2CN1CCCCN1CCN2c3cccc4scc(c34)CC2C1` (centres unmarked) [Compound I-22, 2-(4-(6a,7,9,10-Tetrahydropyrazino[1,2-a]Thieno [4,3,2-De]Quinolin-8 (6H)-Yl)Butyl) Isoindolin-1-One], for which the EC50 on dopamine D2 receptors [1] (setting [9]) was 328 nM; on 5-HT2A receptor [2] (setting [11]), 3470 nM; on 5-HT1A receptor [3] (setting [13]), 1470 nM; on 5-HT2A receptor [7] (setting [15]), 966 nM; on dopamine D2 receptors [8] (setting [16]), 161 nM. Moreover, the Emax on dopamine D2 receptors [1] stood at 24.8%; on 5-HT2A receptor [2] (setting [10]) it was 64.6%; at 5-HT1A receptor [3] (setting [12]), 87%; on 5-HT2A receptor [7], 13.8%; at dopamine D2 receptors [8], 37%. Moreover, the Ki on dopamine D2 receptors [4] was 490 nM; on 5-HT2A receptor [5], 1200 nM; on 5-HT1A receptor [6] (setting [14]), 350 nM.

As for `COc1cc2c(cc1OC)C(=O)N(CCCCN1CCN3c4cccc5scc(c45)CC3C1)C2` (centres unmarked) [Compound I-23, 5,6-Dimethoxy-2-(4-(6a,7,9,10-Tetrahydropyrazino[1,2-a]Thieno [4,3,2-De]Quinolin-8 (6H)-Yl)Butyl) Isoindolin-1-One], the EC50 at dopamine D2 receptors [1] (setting [9]) came out at 130 nM; at 5-HT2A receptor [2] (setting [11]), 8060 nM; at 5-HT1A receptor [3] (setting [13]), 6700 nM; on 5-HT2A receptor [7] (setting [15]), 245 nM; at dopamine D2 receptors [8] (setting [16]) it was 282 nM. In addition, the maximal response (Emax) was 38.5% at dopamine D2 receptors [1]; 138% on 5-HT2A receptor [2] (setting [10]); 71% on 5-HT1A receptor [3] (setting [12]); 18.9% on 5-HT2A receptor [7]; 61.9% on dopamine D2 receptors [8]. The inhibition constant Ki at dopamine D2 receptors [4] stood at 750 nM; at 5-HT2A receptor [5] it was 160 nM; on 5-HT1A receptor [6] (setting [14]), 4130 nM.
